{"source": "paper PMC5597121", "about": "“The human bitter taste receptor T2R38 is broadly tuned for bacterial compounds” (PLoS ONE, 2017)", "key": {"T2R38": {"molecular_target": "T1, T2R38 (Homo sapiens, UniProt P59533, A49P/I296V)", "T1 construct": "leader: first 45 amino acids of rat somatostatin receptor subtype 3 (SSTR3) (N); expressed in transfected cells; host or cells: Peakrapid cells (HEK293 derivative, ATCC CRL-2828) stably expressing Galpha16gustducin44, co-transfected with human RTP4", "T1 sequence (P59533 1-333 A49P/I296V)": "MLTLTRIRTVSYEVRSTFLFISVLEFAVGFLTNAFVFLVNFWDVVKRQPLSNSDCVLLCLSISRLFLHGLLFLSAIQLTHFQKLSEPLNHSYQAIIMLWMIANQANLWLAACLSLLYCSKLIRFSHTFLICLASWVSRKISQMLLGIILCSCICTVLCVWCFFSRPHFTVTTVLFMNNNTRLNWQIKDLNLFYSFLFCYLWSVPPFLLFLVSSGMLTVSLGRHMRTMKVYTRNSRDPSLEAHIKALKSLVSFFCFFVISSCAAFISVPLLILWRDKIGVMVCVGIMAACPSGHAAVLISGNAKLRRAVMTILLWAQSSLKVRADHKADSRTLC", "assay": "Single cell calcium imaging, Peakrapid cells (Gα16gustducin44) transiently transfected with T2R38", "assay_type": "cell-based", "how_it_was_run": "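HEK293-derived Peakrapid cells stably expressing Gα16gustducin44 were transiently co-transfected with T2R38 (PAV or AVI variant) plus RTP4, then loaded with Fluo4 40 h later. Calcium responses were imaged 1/s for 30 s after ligand injection. Responding-cell surface was normalized to 0.1 mM PTC, with EC50 from four-parameter fits; testing began at 100 mM.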"}, "[1]": {"assay": "Solubility in aqueous / buffer solution", "assay_type": "physicochemical", "description": "32 volatile metabolites of pathogens (S1 Fig) were selected from the literature. All compounds were dissolved in buffer solution, except C4HSL dissolved in buffer solution, DMSO or ethanol, C12HSL dissolved in DMSO or ethanol, and Agr D1 thiolactone dissolved in DMSO."}}, "note": "“And” between values parts separate entries of the source, which are not always exact repeats. Equal entries are not always repeated."}
{"smiles": "CC[C@H](C)[C@H](NC(=O)[C@H](Cc1ccccc1)NC(=O)[C@H](CC(=O)O)NC(=O)[C@H](CCCNC(=N)N)NC(=O)[C@H](Cc1ccccc1)NC(=O)[C@H](Cc1ccccc1)NC(=O)[C@H](CCCCN)NC(=O)[C@H](CO)NC(=O)[C@H](CC(C)C)NC(=O)[C@H](CCCNC(=N)N)NC(=O)[C@H](CCSC)NC(=O)[C@@H](N)CCC(=O)O)C(=O)N[C@@H](CC(C)C)C(=O)N[C@@H](CCC(N)=O)C(=O)N[C@@H](CCCNC(=N)N)C(=O)N[C@@H](CCCCN)C(=O)N[C@@H](CCCCN)C(=O)O", "note": "[CSP-1]", "values": [{"measurement": "agonist activity on T2R38 (in words)", "setting": "T2R38", "result": "inactive"}, {"measurement": "response of T2R38 transfected cells (S6_fig raw data)", "setting": "T2R38; CSP-1 0.5 mM, T2R38, individual values of experiments 1-3", "result": "37.13% and 3.20% and 100.83%"}, {"measurement": "solubility", "setting": "[1]", "result": "soluble at 0.5 mM in the buffer solution"}]}
